This note sets out measurements from US20130158362A1 (INFACARE PHARMACEUTICAL CORPORATION, priority 2011, published 2013).

The assay concerns term and late preterm subjects with hyperbilirubinemia. Kind of assay: Phase 2b trial: need for phototherapy/exchange transfusion, time to PT, duration of PT, time to hospital discharge. Type of assay: in vivo, human. As to conditions: for Time to discharge, Mean: from treatment; for Time to PT (range): subjects who needed PT. On the procedure: PT was standardized for this study. TSB levels were initially assessed at 6 hours after IM injection to determine if PT was necessary. If the subject met the AAP Guidelines for starting PT, PT was initiated, and if the criteria were not met at the time, the subjects continued in the study until the next TSB level assessment (at 12, 24, and 48 hours following IMP injection). If, at any of these time points, the subject met the criteria for initiation of PT per AAP Guidelines, then PT was started.
In subjects receiving PT, determinations to assess whether or not PT was still required were done every 6 hours (±15 min); if the TSB was declining over 2 of these 6 hour assessments, TSB assessments could be done every 12 hours (±15 min). PT was stopped after 1 declining TSB assessment had been reviewed and the TSB level had declined to at least 2 mg/dL below the threshold for PT (as determined by the age of the subject when the blood was collected). As part of the clinical management of the subject, once PT was stopped, a TSB assessment was performed at approximately 6 hours later to assure there was no rebound in the bilirubin level. If the TSB rebounded above the threshold for PT, further clinical management was at the discretion of the principal investigator. After completion of Visit 4 (Day 30), parents/guardians were asked to enroll the completed subjects into a long term safety follow-up study.
The Secondary Efficacy Endpoints were the change from baseline in unadjusted TSB at 48 hours after treatment, change from baseline in adjusted and unadjusted TSB at various other time points after treatment, percent change from baseline in unadjusted TSB, proportion of subjects who require PT/exchange transfusion (ET), time to PT/ET, duration of PT and time to hospital discharge.
Analysis of Efficacy Parameters: The primary efficacy analysis applied the analysis of covariance (ANCOVA) method to determine if there was a significant difference between treatment groups in change in adjusted TSB levels from baseline to 48 hours post baseline after controlling for the effects of gestational age and adjusted baseline TSB levels. If assumptions of ANCOVA appeared to be violated, a Wilcoxon rank-sum test could be performed instead. Time-to-event variables were analyzed using the Kaplan-Meier method, and Kaplan-Meier survival curves were presented.

Entries after “also recorded” stand apart in the source; their conditions may differ.

“tin IV mesoporphyrin IX dichloride [Stannsoporfin]”: the “maximum duration of PT” value by setting is: (1.5 mg/kg) 1426 min; (3 mg/kg) 1140 min; (4.5 mg/kg) 990 min. In addition, the “Duration of PT” value by setting is: (1.5 mg/kg IM) “about 20 hours”; (3.0 mg/kg IM) “about 14 hours”; (4.5 mg/kg IM) “about 14 hours”. The “Time to discharge, Range” value (1.5 mg/kg IM) is 14.6 to 143.3 h; the “Time to discharge, Range” value (3.0 mg/kg IM) lay within 11.5 to 77.0 h; the “Time to discharge, Range” value (4.5 mg/kg IM) fell in the range of 15 to 405.3 h. In addition, the “subjects who received/required phototherapy (PT), n (%)” value (1.5 mg/kg IM, N = 17) was 3 (17.6%); the “subjects who received/required phototherapy (PT), n (%)” value (3.0 mg/kg IM, N = 18) was 6 (33.3%); the “subjects who received/required phototherapy (PT), n (%)” value (4.5 mg/kg IM, N = 8) is 2 (25%). For the same substance, the “Time to discharge, Mean” value by setting is: (1.5 mg/kg IM) 38 h; (3.0 mg/kg IM) 42.8 h; (4.5 mg/kg IM) 48.3 h. Further, the “Time to PT (range)” value is 5.2 to 17.8 h (1.5 mg/kg IM), 7.2 to 15.2 h (3.0 mg/kg IM) and 7.3 to 8.8 h (4.5 mg/kg IM). For the same substance, the “time to hospital discharge compared to placebo” value (4.5 mg/kg, largely due to 1 subject with meningitis) is recorded as “significantly greater”. Moreover, the “exchange transfusions (ET) required” value (all dose groups) is given as “no exchange transfusions; also recorded: no subjects requiring ET”. The readmission to hospital entry (all stannsoporfin dose groups) is “No subjects who received stannsoporfin were readmitted”. The “treated infants requiring subsequent phototherapy” value (single 1.5 mg/kg dose) was 17.6%.
